Data as given in the supplement of paper PMC10307832.

Key:
Experiment in all cases: relative viability (nuclei count vs DMSO), 5 days (fraction); higher = more cells survive
[1] = compound: CC1CC(=O)N(C2=CN=C(N=C2N1C3CCCC3)NC4=C(C=C(C=C4)C(=O)NC5CCN(CC5)C)OC)C [NPK76-II-72-1] + C[C@@H](Oc1cc(-c2cnn(C3CCNCC3)c2)cnc1N)c1c(Cl)ccc(F)c1Cl [Crizotinib] (partner 1 µM)
Procedure, shortened: (§1)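 Values are medians from duplicate plates. Each reflects relative viability, defined as the nuclei count of treated wells over that of vehicle wells. Lung cancer cell lines in 1536-well plates were pin-tool dosed one day after seeding with one drug alone or with a fixed anchor-drug dose plus five library-drug doses (not always all listed) in √10 steps, then fixed, stained and imaged at 4× after 5 days.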

[2] = compound: CC1CC(=O)N(C2=CN=C(N=C2N1C3CCCC3)NC4=C(C=C(C=C4)C(=O)NC5CCN(CC5)C)OC)C [NPK76-II-72-1] + Nc1nc2[nH]cc(CCc3ccc(C(=O)N[C@@H](CCC(=O)O)C(=O)O)cc3)c2c(=O)[nH]1 [Pemetrexed] (partner 0.2 µM)
Procedure, shortened: as §1

[3] = compound: CC1CC(=O)N(C2=CN=C(N=C2N1C3CCCC3)NC4=C(C=C(C=C4)C(=O)NC5CCN(CC5)C)OC)C [NPK76-II-72-1] + CCNC(=O)c1noc(-c2cc(C(C)C)c(O)cc2O)c1-c1ccc(CN2CCOCC2)cc1 [Luminespib] (partner 0.01 µM)
Procedure, shortened: as §1

BI-2536 + OSI-027 = compound: CC[C@@H]1C(=O)N(C)c2cnc(Nc3ccc(C(=O)NC4CCN(C)CC4)cc3OC)nc2N1C1CCCC1 [BI-2536] + COc1cccc2cc(-c3nc([C@H]4CC[C@H](C(=O)O)CC4)n4ncnc(N)c34)[nH]c12 [OSI-027] (partner 0.5 µM)
Procedure, shortened: as §1

Row | Cell Line | relative viability ([1]; first compound 0.01 µM) | relative viability ([1]; first compound 0.03162 µM) | relative viability ([1]; first compound 0.1 µM) | relative viability ([1]; first compound 0.3162 µM) | relative viability ([1]; first compound 1 µM) | relative viability ([2]; first compound 0.01 µM) | relative viability ([2]; first compound 0.03162 µM) | relative viability ([2]; first compound 0.1 µM) | relative viability ([2]; first compound 0.3162 µM) | relative viability ([2]; first compound 1 µM) | relative viability ([3]; first compound 0.01 µM) | relative viability ([3]; first compound 0.03162 µM) | relative viability ([3]; first compound 0.1 µM) | relative viability ([3]; first compound 0.3162 µM) | relative viability ([3]; first compound 1 µM) | relative viability (BI-2536 + OSI-027; first compound 0.01 µM) | relative viability (BI-2536 + OSI-027; first compound 0.03162 µM) | relative viability (BI-2536 + OSI-027; first compound 0.1 µM) | relative viability (BI-2536 + OSI-027; first compound 0.3162 µM) | relative viability (BI-2536 + OSI-027; first compound 1 µM)
1 | NCI-H1703 | 0.525 | 0.754 | 0.774 | 0.641 | 0.628 | – | – | – | – | – | – | – | – | – | – | – | – | – | – | –
2 | NCI-H1437 | 0.843 | 0.956 | 0.834 | 0.746 | 0.967 | 0.319 | 0.305 | 0.307 | 0.305 | 0.352 | 1.03 | 1.13 | 1.09 | 1.03 | 1.08 | 0.857 | 0.925 | 0.398 | 0.172 | 0.149
3 | SK-LU-1 | 0.812 | 1.07 | 0.93 | 0.859 | 0.981 | 0.972 | 1.05 | 0.925 | 1.03 | 1.04 | 0.181 | 0.206 | 0.213 | 0.196 | 0.209 | 0.341 | 0.278 | 0.198 | 0.172 | 0.146
4 | H3255 | 0.855 | 0.887 | 0.819 | – | 1.16 | 0.565 | 0.517 | 0.604 | 0.446 | 0.602 | 0.871 | 0.76 | 0.55 | 0.675 | 0.891 | 0.51 | 0.586 | 0.188 | 0.259 | 0.323
5 | Calu-6 | 0.757 | 0.784 | 0.763 | 0.713 | 0.861 | – | – | – | – | – | – | – | – | – | – | – | – | – | – | –
6 | NCI-H1792 | 1.05 | 0.817 | 0.968 | 1 | 1.07 | – | 0.961 | 0.627 | 0.636 | 1.06 | 0.404 | 0.504 | 0.469 | 0.5 | 0.556 | 0.818 | 0.758 | 0.678 | 0.591 | 0.395
7 | SK-MES-1 | 0.967 | 0.999 | 1.01 | 0.956 | 1.02 | 0.929 | 0.968 | 0.989 | 1.01 | 1.12 | 0.827 | 0.79 | 0.646 | 0.688 | 0.857 | 0.601 | 0.458 | 0.178 | 0.173 | 0.182
8 | NCI-H1650 | 1.01 | 1.07 | 0.861 | 0.917 | 1.11 | 0.325 | 0.368 | 0.345 | 0.399 | 0.358 | 0.185 | 0.198 | 0.207 | 0.194 | 0.194 | 0.636 | 0.564 | 0.169 | 0.18 | 0.159
9 | HCC-366 | 0.458 | 0.683 | 0.694 | 0.429 | 0.59 | 0.127 | 0.149 | 0.132 | 0.138 | 0.143 | – | – | – | – | – | 0.835 | 0.856 | 0.146 | 0.0244 | 0.0284
10 | NCI-H727 | 0.703 | 0.768 | 0.906 | 0.668 | 0.889 | – | – | – | – | – | 0.29 | 0.31 | 0.288 | 0.246 | 0.412 | 0.597 | 0.471 | 0.499 | 0.334 | 0.338
11 | HCC-78 | – | 0.33 | 0.355 | – | 0.368 | 0.978 | 0.893 | 0.75 | 0.869 | 0.895 | – | – | – | – | – | 0.376 | 0.359 | 0.317 | 0.363 | 0.198
12 | EBC-1 | 0.178 | 0.21 | 0.19 | 0.214 | 0.184 | – | – | – | – | – | – | – | – | – | – | – | – | – | – | –
13 | NCI-H1623 | – | – | – | – | – | – | – | – | – | – | 0.448 | 0.382 | 0.513 | 0.421 | 0.574 | 0.433 | 0.392 | 0.39 | 0.233 | 0.294
14 | NCI-H2342 | – | – | – | – | – | 0.74 | 0.755 | 0.812 | 0.584 | 0.772 | 0.653 | 0.6 | 0.67 | 0.548 | 0.709 | 0.664 | 0.546 | 0.598 | 0.362 | 0.367
15 | SW 900 | – | – | – | – | – | 0.445 | 0.49 | 0.493 | 0.463 | 0.493 | 0.183 | 0.19 | 0.171 | 0.169 | 0.169 | 0.6 | 0.427 | 0.456 | 0.129 | 0.132
16 | NCI-H1793 | – | – | – | – | – | – | 1.05 | 0.92 | 0.806 | 0.981 | 0.144 | 0.166 | 0.203 | 0.176 | 0.201 | 0.271 | 0.256 | 0.143 | 0.157 | 0.136
17 | NCI-H1299 | 0.921 | 0.911 | 0.984 | 0.932 | 0.919 | – | – | – | – | – | – | – | – | – | – | – | – | – | – | –
18 | NCI-H1395 | – | – | – | – | – | 1.02 | 0.842 | 0.972 | 0.856 | 0.881 | 0.774 | 0.76 | 0.678 | 0.709 | 0.863 | 0.617 | 0.64 | 0.313 | 0.306 | 0.386
19 | NCI-H522 | – | – | – | – | – | 0.839 | 0.914 | 1.01 | – | 0.797 | 1.05 | 1.1 | 1.42 | 1.14 | 1.27 | 0.752 | 0.72 | 0.445 | 0.399 | 0.372
20 | A549 | 0.704 | 0.798 | 0.775 | 0.803 | 0.8 | – | – | – | – | – | – | – | – | – | – | – | – | – | – | –
21 | NCI-H1648 | – | – | – | – | – | 0.633 | 0.648 | 0.702 | 0.739 | 0.732 | – | – | – | – | – | 0.258 | 0.25 | 0.233 | 0.203 | 0.24
22 | IA-LM | 0.704 | 0.818 | 0.727 | 0.616 | 0.989 | – | – | – | – | – | – | – | – | – | – | – | – | – | – | –
23 | ABC-1 | 0.907 | 1.13 | 1.06 | 1.01 | 1.1 | – | – | – | – | – | – | 0.389 | – | 0.543 | 0.522 | 0.419 | 0.362 | 0.237 | 0.236 | 0.19
